Assay results published in patent US7013836B1, “Enhancing maturation of oocytes in bivalves” (Board of Supervisors of Louisiana State University and …, priority 2002, dated 2006).
Where two headings read alike, the source gives them in different places. *1 amine or outer side, *2 acyl side, *3 side chain or, on linkers, in order; H or OH if unused. Where a SMILES comes first, the peptide text is derived from it. Bridges are numbered along the chain shown (N, C = ends). Roman numbers before positions name the chains, in order. [ ]: non-standard residue; d: D form. Actinocin(9to1) = Cc1c2oc3c(C)ccc(C(=O)[*:1])c3nc-2c(C(=O)[*:2])c(N)c1=O; NMeV = CN[C@H](C(=O)O)C(C)C; Sar = CNCC(=O)O

Tests used:
[1] = test system: pieces of ovary from the scallop; conditions: cited from earlier work
[2] = test system: ovarian pieces of the scallop; conditions: isolated ovarian pieces in vitro; cited from earlier work
Japanese scallop = conditions: in vivo; cited from earlier work
C. gigas = conditions: cited from earlier work
C. virginica = assay: Spawning response of estradiol-17β-injected oysters to serotonin stimulus after normal spawning season; type: in vivo, Crassostrea virginica
Experimental: A series of initial experiments assayed the response of C. virginica to low doses of estradiol-17β. These trials were undertaken in August and September, at the end of the normal maturation and spawning season of this species on the Gulf coast. Experiments typically ran for two weeks following the injection of a single dose of estradiol-17β into the […] muscle. (Injections were made through a small hole drilled in the shell.) The estradiol dosage for each animal was calculated based on wet body tissue mass of the whole animal, as estimated from its shell length. (These estimates were based on linear regression from measurements of shell lengths and wet body mass from 62 mixed-sex oysters that had been harvested in July). […] (The normal physiological level is 1.5 ng per gram wet weight. So a 5× dosage is 7.5 ng per gram wet weight, […]) Responses to the estradiol treatment were based on visual assessment of gonadal condition, on the response of the excised whole animal to a solution of 0.01 mM 5-hydroxytryptamine during a 45 min treatment period, and on histological examination of samples of the oyster taken through the body mass containing the gonadal region.
The three trials summarized in Table 1 were analyzed using a yes/no non-parametric chi-squared analysis.

oysters = assay: Presence of prominent genital canals 14 days after estradiol-17β injection; type: in vivo, Crassostrea virginica; conditions: after 14 days, May
Experimental: In another experiment, conducted in May in Grand Isle, La., animals were injected either with 0 (control), 37.5 ng/g, or 74 ng/g of estradiol-17β. After 14 days, animals were evaluated using the traditional methodology of assaying the presence of prominent genital canals, indicative of mature animals that are ready to spawn. These animals were not subjected to serotonin treatment, but rather were sacrificed for histological examination to establish a somatic-gonadal ratio index. […] Data analysis was performed using GraphPad InStat software. The data reported in Table 2 are conservative, in the following sense: During the trial period, the water temperature decreased from 23° C. to 18° C., and then increased to 22° C., all within a thirty-six hour period. Such a temperature change is alone often sufficient to trigger spawning in the wild.

[3] = test system: triploid C. virginica oysters; assay: Triploid oysters: sex, gonadal condition and oocyte yield by stripping after estradiol injection; type: in vivo, Crassostrea virginica; conditions: 150 ng/gm wet weight
Experimental: In trials with 261 triploid C. virginica oysters that began on May 31 in Grand Isle, La., the oysters were notched and were then injected with 150 ng/gm wet weight estradiol 17β. Ten days later, the animals were sacrificed, and their sex and gonadal condition were determined. Of the 261 animals tested, 13 were confirmed female triploids. These 13 triploid females yielded a total of 6 million oocytes by traditional stripping techniques, which is not a high yield in comparison to diploid animals, but was high compared to untreated triploids.
For comparison, on May 6 of the following year, 165 animals selected from the same original cohort of triploid oysters were sacrificed without the estradiol treatment. […] While these observations were made one year apart, both sets of observations involved triploid animals sharing the same diploid parents. The estradiol-treated group was 2 years old at the time of observation, while the untreated group one year later was 3 years old. […] However, in support of the effectiveness of the treatment, it may be noted that the three-year-old, untreated animals were sacrificed at a time when the population of mature and spawning diploid animals in the same location was at its peak, whereas the two-year-old, estradiol-treated animals were examined when the number of mature and spawning diploids was in decline.

[4] = test system: zebra mussels (Dreissena polymorpha); conditions: cited from earlier work
[5] = test system: scallop Patinopecten yessoensis; conditions: intragonadal injection; cited from earlier work
[6] = Aug. 18, injection 75 ng per gram wet weight
[7] = Sep. 15, injection 7.5 ng per gram wet weight
[8] = Sep. 22, injection 15 ng per gram wet weight

Compound: CC[C@@H](CO)NC(=O)[C@@H]1C=C2c3cccc4c3c(cn4C)C[C@H]2N(C)C1 [Methysergide]
- release of eggs ([1]; pieces of ovary in vitro): inhibited the release of eggs

Compound: CCCCC[C@H](O)/C=C/[C@H]1[C@H](O)CC(=O)[C@@H]1C/C=C\CCCC(=O)O [PGE2, prostaglandin E2]
- effect on serotonin-induced egg release ([1]; pieces of ovary in vitro): enhanced the effect of serotonin
- release of eggs ([1]; pieces of ovary in vitro): did not induce egg release

Compound: Cc1c2oc3c(C)ccc(C(=O)N[C@@H]4C(=O)N[C@H](C(C)C)C(=O)N5CCC[C@H]5C(=O)N(C)CC(=O)N(C)[C@@H](C(C)C)C(=O)O[C@@H]4C)c3nc-2c(C(=O)N[C@@H]2C(=O)N[C@H](C(C)C)C(=O)N3CCC[C@H]3C(=O)N(C)CC(=O)N(C)[C@@H](C(C)C)C(=O)O[C@@H]2C)c(N)c1=O [actinomycin D] (I: T[dV]P[Sar][NMeV] / II: T[dV]P[Sar][NMeV]; ester I:1-I:C, II:1-II:C; linker I:N-II:N via Actinocin(9to1))
- effect on the accelerating effect of estradiol-17β pre-incubation [2]: inhibited

Compound: CC(=O)Oc1ccccc1C(=O)O [aspirin]
- effect on the accelerating effect of estradiol-17β pre-incubation [2]: inhibited
- effect on serotonin-induced egg release ([1]; PGE2 also present): did not inhibit serotonin-induced egg release

Compound: C[C@]12C[C@H]3S[C@H]3C[C@@H]1CC[C@@H]1[C@@H]2CC[C@]2(C)[C@@H](O)CC[C@@H]12 [epitostanol]
- increase of PGE2 and PGF2α in the ovary (Japanese scallop): inhibit the increase of PGE2 and PGF2α

Compound: C[C@]12CC[C@@H]3c4ccc(OC(=O)c5ccccc5)cc4CC[C@H]3[C@@H]1CC[C@@H]2O [estradiol-3-benzoate]
- response time following injection (C. gigas): about 50 days
- gonadal-somatic index ratio (C. gigas; high dose injected into the gonad): promoted an increase in the gonadal-somatic index ratio

Compound: C[C@]12CC[C@@H]3c4ccc(O)cc4CC[C@H]3[C@@H]1CC[C@@H]2O [estradiol-17β]
- Animals not responding to 5-hydroxytryptophan stimulus - % (C. virginica; [6]): 42%
- Animals not responding to 5-hydroxytryptophan stimulus - no. (C. virginica; [6]): 6
- Animals responding to 5-hydroxytryptophan stimulus - % (C. virginica; [6]): 58%
- Animals responding to 5-hydroxytryptophan stimulus - no. (C. virginica; [6]): 8
- Animals not responding to 5-hydroxytryptophan stimulus - % (C. virginica; [7]): 60%
- Animals not responding to 5-hydroxytryptophan stimulus - no. (C. virginica; [7]): 12
- Animals responding to 5-hydroxytryptophan stimulus - % (C. virginica; [7]): 40%
- Animals responding to 5-hydroxytryptophan stimulus - no. (C. virginica; [7]): 8
- Animals not responding to 5-hydroxytryptophan stimulus - % (C. virginica; [8]): 65%
- Animals not responding to 5-hydroxytryptophan stimulus - no. (C. virginica; [8]): 21
- Animals responding to 5-hydroxytryptophan stimulus - % (C. virginica; [8]): 35%
- Animals responding to 5-hydroxytryptophan stimulus - no. (C. virginica; [8]): 11
- number with prominent genital canals (oysters; dose 1 group, 37.5 ng/g): 11
- number without prominent genital canals (oysters; dose 1 group, 37.5 ng/g): 38
- percent with prominent genital canals (oysters; dose 1 group, 37.5 ng/g): 22%
- percent without prominent genital canals (oysters; dose 1 group, 37.5 ng/g): 78%
- number with prominent genital canals (oysters; dose 2 group, 74 ng/g): 18
- number without prominent genital canals (oysters; dose 2 group, 74 ng/g): 35
- percent with prominent genital canals (oysters; dose 2 group, 74 ng/g): 34%
- percent without prominent genital canals (oysters; dose 2 group, 74 ng/g): 66%
- total oocytes yielded by traditional stripping ([3]; 13 triploid females, ten days after injection): 6 million oocytes
- confirmed female triploids among animals tested ([3]; of 261 triploid oysters, untreated cohort of 165 had none): 13

Compound: CNCCC(Oc1ccc(C(F)(F)F)cc1)c1ccccc1 (stereo not drawn) [fluoxetine]
- induction of spawning [4]: can induce spawning in both sexes

Compound: COCCCC/C(=N\OCCN)c1ccc(C(F)(F)F)cc1 [fluvoxamine]
- induction of spawning [4]: can induce spawning in both sexes

Compound: COc1ccc2c(c1)c(CC(=O)O)c(C)n2C(=O)c1ccc(Cl)cc1 [indomethacin]
- effect on serotonin-induced egg release ([1]; PGE2 also present): did not inhibit serotonin-induced egg release

Compound: Fc1ccc([C@@H]2CCNC[C@H]2COc2ccc3c(c2)OCO3)cc1 [paroxetine]
- induction of spawning [4]: can induce spawning in both sexes

Compound: NCCc1c[nH]c2ccc(O)cc12 [serotonin, 5-hydroxytryptamine]
- release of eggs ([1]; pieces of ovary in vitro): the number of released eggs increased significantly
- spawning [5]: stimulated spawning in both sexes
- induction of spawning [4]: induce both oocyte meiotic maturation and spawning

Compound: prostaglandin F2α [PGF2α]
- effect on serotonin-induced egg release ([1]; pieces of ovary in vitro): significantly inhibited the effect of serotonin
